Test results taken from patent US9259350B2, “Ophthalmic devices for delivery of beneficial agents” (CooperVision International Holding Company, LP, priority 2012, dated 2016).

Key:
[1] = PSS uptake by hydrated and non-hydrated Proclear lenses; assay type: physicochemical
[2] = Drug uptake by dry vs wet (hydrated) Proclear lenses after autoclave; assay type: physicochemical; details: for % Δ Dry vs Wet (drug uptake): Proclear lens; for Drug Uptake, Wet Lens: hydrated Proclear lens; for Drug Uptake, Wet Lens / Drug Uptake, Dry Lens: autoclaved, n=3; for Drug Uptake, Dry Lens: non-hydrated Proclear lens
Method: The ability of hydrated and non-hydrated (dry) Proclear lenses to take up olopatadine, ketotifen, and cromolyn was evaluated. At physiological pH, olopatadine is zwitterionic, ketotifen is positively charged, and cromolyn is negatively charged. […] The dry lenses were removed from their original molds, packaged with 3 ml of each drug solution without any intermediate hydration step and autoclaved. For controls, each drug solution was packaged without a lens and autoclaved. After autoclave, the amount of drug in each packaging solution was measured by HPLC.

[3] = εPLL uptake by non-hydrated Proclear lenses in different buffers; assay type: physicochemical; details: dry Proclear lens, autoclaved, n=3
Method: The uptake and release of εPLL from non-hydrated (i.e. dry) Proclear lenses was evaluated. The εPLL (Chisso Corporation, Tokyo, Japan) was prepared at a concentration of 500 ppm in three different buffers, PBS, TRIS buffered saline (0.023% tris(hydroxymethyl)methylamine, 0.544% trizma hydrochloride, 0.819% NaCl; TBS), or Tris-sorbitol. Lenses were individually packaged, in triplicate, in 1.2 ml of each εPLL preparation and autoclaved. Additionally, vials containing 1.2 ml 500 ppm εPLL in each buffer with no lens (control vials) were also autoclaved. The amounts of εPLL present in the post-autoclave solution of the test lens vials and in the control vial were determined by cationic size exclusion chromatography using a sample injection volume of 5 μl, a Water Acquity UPLC BEH 125 SEC 1.7 μm 4.6×150 mm at room temperature, and a flow rate of 0.4 ml/min using 90% 0.2M NaCl/0.1% TFA in H20: 10% ACN isocratically. The average of the amount of εPLL taken up by each test lens (n=3) was calculated by subtracting the amount of εPLL present in the post-autoclave solution of the test lens vial from the amount of εPLL present in the control vial. Lenses packaged with 500 ppm εPLL in PBS took up an average of 88 μg εPLL. Lenses packaged with 500 ppm εPLL in TBS took up 47 μg εPLL, and lenses packaged with 500 ppm εPLL in Tris-sorbitol took up 208 μg εPLL.

Serratia marcescens = assay: Antimicrobial activity of εPLL-packaged Proclear lenses; assay type: cell-based
Method: (§1) For example, hydrated Proclear contact lenses were packaged and autoclaved in PBS having an ionic strength of about 0.2 and comprising 500 ppm εPLL, an antimicrobial peptide. These lenses took up an average of 5 μg of the εPLL/lens. […] Thus, in various examples, the packaging solution has an ionic strength of less than about 0.15, 0.10, or 0.05 as calculated by the equation: […]

[4] = εPLL uptake by hydrated Proclear lenses, packaging solutions of different ionic strength; assay type: physicochemical
Method: as §1

[5] = high concentration: 250 μg/ml ketotifen, 1000 μg/ml olopatadine, 2000 μg/ml cromolyn
[6] = low concentration: 25 μg/ml ketotifen, 200 μg/ml olopatadine, 400 μg/ml cromolyn
[7] = high concentration: 250 μg/ml ketotifen (borate buffer), 1000 μg/ml olopatadine (PBS), 2000 μg/ml cromolyn (PBS)
[8] = low concentration: 25 μg/ml ketotifen (borate buffer), 200 μg/ml olopatadine (PBS), 400 μg/ml cromolyn (PBS)

Molecule | % Δ Dry vs Wet (drug uptake) [2, 5] | % Δ Dry vs Wet (drug uptake) [2, 6] | Drug Uptake, Wet Lens [2, 7] | Drug Uptake, Wet Lens [2, 8] | Drug Uptake, Dry Lens [2, 7] | Drug Uptake, Dry Lens [2, 8] | also measured
C=Cc1ccc(S(=O)(=O)[O-])cc1.[Na+] [compound 206, styrene sulfonate] |  |  |  |  |  |  | uptake by dry lens compared to wet lens ([1]; Proclear lens): significantly more; % Δ Dry vs Wet (uptake) ([1]; Proclear lens, 0.01 mole/liter PSS, 48 hours): 16%; Uptake, Wet Lens ([1]; hydrated Proclear lens, 0.01 mole/liter PSS, 48 hours, n=3): 92 µg; Uptake, Dry Lens ([1]; non-hydrated Proclear lens, 0.01 mole/liter PSS, 48 hours, n=3): 110 µg
CN1CCC(=C2c3ccccc3CC(=O)c3sccc32)CC1 [ketotifen] | −6% | −17% | 122 µg | 12 µg | 115 µg | 10 µg | 
CN(C)CC/C=C1/c2ccccc2COc2ccc(CC(=O)O)cc21 [olopatadine] | 6% | 16% | 202 µg | 45 µg | 215 µg | 52 µg | 
epsilon polylysine [εPLL] |  |  |  |  |  |  | εPLL uptake (average) ([3]; 500 ppm εPLL in PBS): 88 µg; εPLL uptake ([3]; 500 ppm εPLL in TBS): 47 µg; εPLL uptake ([3]; 500 ppm εPLL in Tris-sorbitol): 208 µg; antimicrobial activity against Serratia marcescens (Serratia marcescens; Proclear lenses autoclaved in PBS with 500 ppm εPLL): no antimicrobial activity; kill of Serratia marcescens (Serratia marcescens; Proclear lenses autoclaved in TRIS buffer with 2% sorbitol with εPLL): ~4 log; εPLL uptake (average) ([4]; hydrated Proclear lenses autoclaved in PBS, ionic strength about 0.2, 500 ppm εPLL): 5 μg/lens; εPLL uptake (average) ([4]; hydrated Proclear lenses autoclaved in TRIS buffer with 2% sorbitol, ionic strength about 0.02): about 120 μg/lens
